From ChEMBL document CHEMBL1125985, “Tubulin binding of conformationally restricted bis-aryl compounds” (Bioorg Med Chem Lett, 1991) come the findings set out here.

The assay has as its target Tubulin (Bos taurus, UniProt Q6B856+Q862L2+Q862F3). The assay is described as follows: In vitro inhibition of purified bovine brain tubulin polymerisation in the absence of microtubule-associated proteins.
Regarding `COc1ccc(Cc2cc(OC)c(OC)c(OC)c2)cc1O`, the IC50 stood at 1.5e-06 M. This lies in the single-digit micromolar range.

For the compound `COc1ccc(CCCCc2cc(OC)c(OC)c(OC)c2)cc1O`, the IC50 worked out at 5.8e-06 M.

Compound `COc1ccc(CCCc2cc(OC)c(OC)c(OC)c2)cc1O` showed an IC50 of 2.4e-06 M. This IC50 is about 2.4-fold lower than that of the compound before. Compound `COc1ccc(CCc2cc(OC)c(OC)c(OC)c2)cc1O` had an IC50 of 1.4e-06 M. Compared with the last compound, the IC50 is about 1.7-fold lower. As for `COc1cc2c(c(OC)c1OC)C(c1ccc3c(c1)OCO3)CC2` (stereo unspecified), the IC50 was > 0.0002 M. In the case of `COc1cc2c(c(OC)c1OC)C(c1ccc3c(c1)OCO3)CCC2` (stereo unspecified), the IC50 was > 0.0002 M. `COc1cc2c(cc1O)CCCc1cc(OC)c(OC)c(OC)c1-2` gave an IC50 of 5.3e-06 M.

Take `COc1ccc(-c2ccc(OC)c(=O)cc2)c(OC)c1OC`: the IC50 amounted to 7.5e-06 M. `COc1cc2c(cc1O)CCc1cc(OC)c(OC)c(OC)c1-2` returned an IC50 of 0.000104 M.

`COc1cc2c(cc1O)CCCCc1cc(OC)c(OC)c(OC)c1-2`: the IC50 is listed as > 0.000125 M. Consider `COc1cc(C2CCCc3cc4c(cc32)OCO4)cc(OC)c1OC` (stereo unspecified), for which the IC50 turned out to be 2.4e-06 M. This lies in the single-digit micromolar range.

Compound `COc1ccc(-c2ccc3c(c2)OCO3)c(OC)c1OC` showed a 50% inhibitory concentration (IC50) of 0.00015 M.

`COc1cc(-c2ccc(OC)c(OC)c2OC)ccc1O` gave an IC50 of 0.000098 M.

In turn, `COc1ccc(CC(OC(C)=O)c2cc(OC)c(OC)c(OC)c2)cc1O` (stereo unspecified) gave an IC50 of 5e-06 M. Against the preceding compound, the IC50 is about 20-fold lower. For the compound `COc1cc(C2CCc3cc4c(cc32)OCO4)cc(OC)c1OC` (stereo unspecified), the IC50 is 0.000012 M. This IC50 is about 2.4-fold higher than that of the compound before. For the compound `COc1cc(Cc2ccc3c(c2)OCO3)cc(OC)c1OC`, the 50% inhibitory concentration (IC50) was found to be 0.000067 M.
